Laboratory results as given in patent US20240336617A1, “Substituted Bimane Compounds and Methods of Use Thereof” (THE TRUSTEES OF THE UNIVERSITY OF PENNSYLVANIA, priority 2023, published 2024).

Experiments:
αS fibrils [1] = biological target: T1, αS fibrils (Homo sapiens, UniProt P37840); assay: Fluorescence lifetime measurements of probes with αS fibrils; assay type: physicochemical; settings: for fluorescence lifetime when bound to PFFs: 100 μM αS PFFs; for Fluorescence Lifetime: 100 μM dye and PFFs; for Lifetime: with αS fibrils in PBS buffer, probe and αS fibrils 100 μM
T1 construct: intein-His6 (C, cleaved yes); made in house; host or cells: Escherichia coli BL21
Description: TCSPC measurements of fluorescence lifetime decays for 100 μM dyes in the presence of 100 μM αS fibrils were collected with the PTI Quantamaster™ 40 using a pulsed LED with a maximum emission at 486 nm. Fluorescence emission was collected at the indicated wavelength for each dye with 20 nm slit widths. The IRF was collected under identical conditions. Data analysis was performed with FluoFit software using an exponential decay model.

[2] = tested on: αS fibrils versus Aβ1-42 fibrils; assay: Amyloid selectivity by plate reader, αS versus Aβ1-42 fibrils; assay type: binding; set-up: fluorescence turn-on with αS relative to Aβ1-42: dose or concentration left out as unconfirmed; settings: for fluorescence turn on with αS relative to Aβ1-42: 5 μM fibril concentrations, probe 1 μM
Description: Experiments were performed on the Tecan Spark in Greiner 96 well flat black ½ area plates using the following parameters: excitation and emission band widths 5 nm, lag time 0 μs, integration time 40 μs. A 10 mM DMSO stock solution of probes (7j-7m) and 100 μM stock of αS fibrils were used in the study described herein.

αS fibrils [3] = biological target: T1, αS fibrils; assay: Absorbance spectra with αS fibrils; assay type: physicochemical; settings: for λabs / λabs, maximum absorption wavelength: dye 10 μM; for ε / E, molar absorptivity (ε): measured at λabs; for λabs, maximum absorption wavelength / E, molar absorptivity (ε): presence of αS PFFs (+); for λabs, maximum absorption wavelength: PFFs 50 μM, mixture of bound and unbound dye; for increase in molar absorptivity with αS fibrils: presence versus absence of αS fibrils
Description: Absorption measurements were performed using Thermo Scientific Genesys 150 UV Vis spectrometer. Absorption spectra of 10 μM probes (concentrated stock solution prepared as 10 mM in DMSO) (7j, 7k, 7l, and 7m) in PBS buffer were measured in the absence and presence of 50 μM αS fibrils (stock solution 100 μM αS fibrils in PBS buffer).
Absorption measurements were performed using Thermo Scientific Genesys 150 UV Vis spectrometer. Absorption spectra of 10 μM probes (concentrated stock solution prepared as 10 mM in DMSO) (5j and 5k) in PBS buffer were measured in the absence and presence of 50 μM αS fibrils (stock solution 100 μM αS fibrils in PBS buffer).

αS fibrils [4] = biological target: T1, αS fibrils; assay: Fluorescent QY measurements with αS fibrils; assay type: physicochemical; settings: for increase in QY with αS fibrils: presence versus absence of αS fibrils; for Relative Brightness: ratio of ε•QY in the presence and absence of PFFs; for increase in brightness in the presence of PFFs: αS PFFs
Description: For each QY measurement, the incident excitation light spectrum was collected with 100 μL of probes (100 μM) in PBS buffer. After measuring the incident light intensity, probes (7j-7m) were added to the αS fibrils (100 μM) from a concentrated stock solution (10 mM in DMSO) to a final concentration of 100 μM and the new spectrum (fluorescence intensity and new incident light intensity) was collected. Using the JASCO Quantum Yield Software, the dye QY was calculated by dividing the dye fluorescence intensity by the difference in incident light intensity in the presence and absence of fibrils.
For each QY measurement, the incident excitation light spectrum was collected with […] of probes (100 μM) in PBS buffer. After measuring the incident light intensity, probes (5j and 5k) were added to the αS fibrils (100 μM) from a concentrated stock solution (10 mM in DMSO) to a final concentration of 100 μM and the new spectrum (fluorescence intensity and new incident light intensity) was collected. Using the JASCO Quantum Yield Software, the dye QY was calculated by dividing the dye fluorescence intensity by the difference in incident light intensity in the presence and absence of fibrils.

αS fibrils [5] = biological target: T1, αS fibrils; assay: Excitation spectra with αS fibrils; assay type: physicochemical; settings: dye 10 μM; for λex, maximum excitation wavelength: presence of αS PFFs (+), PFFs 50 μM, represents the bound form of dye; for λex: presence of αS PFFs, PFF 50 μM
Description: Excitation spectral measurements were performed using a PTI QuantaMaster™ 40 fluorescence spectrometer. Excitation spectra of 10 μM probes (concentrated stock solution prepared as 10 mM in DMSO) (7j, 7k, 7l, and 7m) in PBS buffer were measured in the absence and presence of 50 μM αS fibrils (stock solution 100 μM αS fibrils in PBS buffer).
Excitation spectra with αS fibrils. Excitation spectral measurements were performed using a PTI QuantaMaster 40 fluorescence spectrometer. Excitation spectra of 10 μM probes (concentrated stock solution prepared as 10 mM in DMSO) (5j and 5k) in PBS buffer were measured in the absence and presence of 50 μM αS fibrils (stock solution 100 μM αS fibrils in PBS buffer).

[6] = presence of αS PFFs (+), 100 μM dye and PFFs
[7] = presence of αS PFFs, 100 μM dye and PFFs
[8] = λex/λem = 435/575 nm for 5j and 463/580 nm for 5k

Row | SMILES | fluorescence lifetime when bound to PFFs (αS fibrils [1]) | Fluorescence Lifetime (αS fibrils [1]; presence of αS PFFs (+)) | Fluorescence Lifetime (αS fibrils [1]; presence of αS PFFs) | Lifetime (αS fibrils [1]) | fluorescence turn on with αS relative to Aβ1-42 [2] | λabs (αS fibrils [3]; absence of αS PFFs) | ε (αS fibrils [3]; absence of αS PFFs) | λabs, maximum absorption wavelength (αS fibrils [3]) | E, molar absorptivity (ε) (αS fibrils [3]) | λabs (αS fibrils [3]; presence of αS PFFs, PFF 50 μM) | ε (αS fibrils [3]; presence of αS PFFs) | increase in molar absorptivity with αS fibrils (αS fibrils [3]) | Fluorescence QY (αS fibrils [4]; absence of αS PFFs, 100 μM dye) | Fluorescence QY (αS fibrils [4]; [6]) | Fluorescence QY (αS fibrils [4]; [7]) | increase in QY with αS fibrils (αS fibrils [4]) | Relative Brightness (αS fibrils [4]) | Relative Brightness (αS fibrils [4]; [8]) | increase in brightness in the presence of PFFs (αS fibrils [4]) | λex (αS fibrils [5]) | further results
1 | Cc1c(C)n2c(/C=C/c3ccc(N(C)C)cc3)c(C)c(=O)n2c1=O [Compound 7l, (E)-3-(4-(dimethylamino)styryl)-2,5,6-trimethyl-1H,7H-pyrazolo[1,2-a]pyrazole-1,7-dione] | 2.27 ns | 2.27 ns | 2.27 ns | 2.27 ± 0.01 ns | 5 fold | 393 nm | 20071 M⁻¹ cm⁻¹ | 386 nm | 43864 M⁻¹ cm⁻¹ | 386 nm | 43864 M⁻¹ cm⁻¹ | 2.2 fold | 0.15% | 32.7% | 32.7% | 218 fold | 476 | 476 | 476 fold | 463 nm | fluorescence turn-on with αS relative to Aβ1-42 [2]: 5.2 fold; λex, maximum excitation wavelength (αS fibrils [5]): 463 nm
2 | Cc1c(C)n2c(/C=C/C=C/c3ccc(N(C)C)cc3)c(C)c(=O)n2c1=O [Compound 7m, 3-((1E,3E)-4-(4-(dimethylamino)phenyl)buta-1,3-dien-1-yl)-2,5,6-trimethyl-1H,7H-pyrazolo[1,2-a]pyrazole-1,7-dione] | – | – | 1.27 ns | 1.27 ± 0.01 ns | 15 fold | 416 nm | 19024 M⁻¹ cm⁻¹ | – | – | 412 nm | 52234 M⁻¹ cm⁻¹ | – | 0.20% | – | 27.9% | – | 383 | – | – | 484 nm | –
3 | Cc1c(C)n2c(/C=C/c3ccc(N4CCOCC4)cc3)c(C)c(=O)n2c1=O [Compound 7k, (E)-2,3,6-trimethyl-5-(4-morpholinostyryl)-1H,7H-pyrazolo[1,2-a]pyrazole-1,7-dione] | – | – | 2.09 ns | 2.09 ± 0.01 ns | 13 fold | 370 nm | 17205 M⁻¹ cm⁻¹ | – | – | 356 nm | 49869 M⁻¹ cm⁻¹ | – | 0.21% | – | 29.2% | – | 403 | – | – | 424 nm | –
4 | Cc1c(C)n2c(/C=C/c3ccc(N)cc3)c(C)c(=O)n2c1=O [Compound 7j, (E)-3-(4-aminostyryl)-2,5,6-trimethyl-1H,7H-pyrazolo[1,2-a]pyrazole-1,7-dione] | 1.90 ns | 1.90 ns | 1.90 ns | 1.90 ± 0.01 ns | – | 372 nm | 15385 M⁻¹ cm⁻¹ | 359 nm | 45956 M⁻¹ cm⁻¹ | 359 nm | 45956 M⁻¹ cm⁻¹ | 3 fold | 0.17% | 20.7% | 20.7% | 122 fold | 364 | 364 | 364 fold | 435 nm | λex, maximum excitation wavelength (αS fibrils [5]): 435 nm
